This is an account of results in patent US20230183237A1, “COMPETITIVE AND NONCOMPETITIVE INHIBITORS OF THE MUSCARINIC ACETYLCHOLINE RECEPTOR M5” (Vanderbilt University, priority 2020, published 2023).

The experiment concerns the target T1, hM5 (Homo sapiens, UniProt P08912).
T1 construct: expressed in transfected cells
T1 sequence (P08912 1-532): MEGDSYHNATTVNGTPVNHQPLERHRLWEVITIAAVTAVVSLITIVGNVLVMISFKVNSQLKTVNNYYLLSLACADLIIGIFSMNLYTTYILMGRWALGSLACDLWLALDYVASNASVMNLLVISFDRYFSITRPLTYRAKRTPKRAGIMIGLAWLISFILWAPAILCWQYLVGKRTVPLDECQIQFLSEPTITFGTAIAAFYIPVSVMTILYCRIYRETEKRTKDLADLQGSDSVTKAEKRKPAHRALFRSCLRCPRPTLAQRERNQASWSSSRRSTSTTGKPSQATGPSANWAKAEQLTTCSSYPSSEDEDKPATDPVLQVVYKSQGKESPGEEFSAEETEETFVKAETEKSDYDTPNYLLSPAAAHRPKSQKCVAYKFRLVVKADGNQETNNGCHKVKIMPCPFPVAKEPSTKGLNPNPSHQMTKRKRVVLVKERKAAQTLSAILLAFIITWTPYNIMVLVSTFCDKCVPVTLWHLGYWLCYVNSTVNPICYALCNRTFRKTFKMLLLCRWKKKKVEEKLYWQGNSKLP
Put plainly: Calcium mobilization concentration-response (IC50 vs EC80 acetylcholine), CHO hM5. The format is cell-based. The note with it: CELL LINE hM5; vs EC80 acetylcholine; read-out: IC50. The method in brief:
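CHO cells stably expressing hM5, dye-loaded, in HBSS/20 mM HEPES/2.5 mM probenecid, pH 7.4. Compounds were pre-incubated 140 s before an EC80 acetylcholine challenge, with calcium flux read kinetically.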
(A change in cytosolic calcium serves as a functional read-out for many receptors and channels.)

Molecules are shown by their SMILES. Some results are limits rather than exact numbers.

A word on the IC50: it is the concentration needed to halve the response being measured. With `Cn1ncc(S(=O)(=O)N2CCC(c3cn4ncnc4cc3Cl)CC2)c1CC#N` [Compound 406, 2-(4-((4-(7-chloro-[1,2,4]triazoto[1,5-a]pyridin-6-yl)piperidin-1-yl)sulfonyl)-1-methyl-1H-pyrazol-5-yl)acetonitrile], the IC50 worked out at 58 nM.
Consider `CCc1cc2ncnn2cc1C1CCN(S(=O)(=O)c2cnn(C)c2C#N)CC1` [Compound 407, 4-((4-(7-ethyl-[1,2,4]triazolo[1,5-a]pyridin-6-yl)piperidin-1-yl)sulfonyl)-1-methyl-1H-pyrazole-5-carbonitrile], for which the IC50 was 148 nM.
The value for `CCc1cc2ncnn2cc1C1CCN(S(=O)(=O)c2cnn(C)c2CC#N)CC1` [Compound 408, 2-(4-((4-(7-ethyl-[1,2,4]triazolo[1,5-a]pyridin-6-yl)piperidin-1-yl)sulfonyl)-1-methyl-1H-pyrazol-5-yl)acetonitrile] was 636 nM; that for `Cn1ncc(S(=O)(=O)N2CCC(c3cn4ncnc4cc3C(F)(F)F)CC2)c1C#N` [Compound 409, 1-methyl-4-((4-(7-(trifluoromethyl)-[1,2,4]triazolo[1,5-a]pyridin-6-yl)piperidin-1-yl)sulfonyl)-1H-pyrazole-5-carbonitrile] was 59 nM; that for `Cn1ncc(S(=O)(=O)N2CCC(c3cn4ncnc4cc3C(F)(F)F)CC2)c1CC#N` [Compound 410, 2-(1-methyl-4-((4-(7-(trifluoromethyl)-[1,2,4]triazolo[1,5-a]pyridin-6-yl)piperidin-1-yl)sulfonyl)-1H-pyrazol-5-yl)acetonitrile] was 204 nM.
For the compound `COC1(c2cn3ncnc3cc2C)CCN(S(=O)(=O)c2cnn(C)c2C)CC1` [Compound 412, 6-(1-((1,5-dimethyl-1H-pyrazol-4-yl)sulfonyl)-4-methoxypiperidin-4-yl)-7-methyl-[1,2,4]triazolo[1,5-a]pyridine], the concentration for half-maximal inhibition (IC50) was more than 10000 nM.
For `COC1(c2cn3ncnc3cc2C)CCN(S(=O)(=O)c2cnn(C)c2Cl)CC1` [Compound 415, 6-(1-((5-chloro-1-methyl-1H-pyrazol-4-yl)sulfonyl)-4-methoxypiperidin-4-yl)-7-methyl-[1,2,4]triazolo[1,5-a]pyridine], the IC50 is more than 10000 nM.
For the compound `COC1(c2cn3ncnc3cc2C)CCN(S(=O)(=O)c2cnn3c2OCCC3)CC1` [Compound 416, 3-((4-methoxy-4-(7-methyl-[1,2,4]triazolo[1,5-a]pyridin-6-yl)piperidin-1-yl)sulfonyl)-6,7-dihydro-5H-pyrazolo[5,1-b][1,3]oxazine], the IC50 was more than 10000 nM.
The value for `Cc1cc2ncccc2cc1C1CCN(S(=O)(=O)c2cnn(C)c2Cl)CC1` [Compound 417, 6-(1-((5-chloro-1-methyl-1H-pyrazol-4-yl)sulfonyl)piperidin-4-yl)-7-methylquinoline] was 34 nM; that for `Cc1cc2ncccc2cc1C1CCN(S(=O)(=O)c2cnn(C)c2C)CC1` [Compound 418, 6(1-((1,5-dimethyl-1H-pyrazol-4-yl)sulfonyl)piperidin-4-yl)-7-methylquinoline] was 32 nM.
The figure for `Cc1cc2ncnn2cc1C1(F)CCN(S(=O)(=O)c2cnn(C)c2Cl)CC1` [Compound 419, 6-(1-((5-chloro-1-methyl-1H-pyrazol-4-yl)sulfonyl)-4-fluoropiperidin-4-yl)-7-methyl-[1,2,4]triazolo[1,5-a]pyridine] is 36 nM.
Consider `Cc1cc2ncnn2cc1C1(F)CCN(S(=O)(=O)c2cnn3c2CCC3)CC1` [Compound 420, 6-(1-((5,6-dihydro-4H-pyrrolo[1,2-b]pyrazol-3-yl)sulfonyl)-4-fluoropiperidin-4-yl)-7-methyl-[1,2,4]triazolo[1,5-a]pyridine], for which the IC50 turned out to be 39 nM.
`Cc1cc2ncnn2cc1C1(F)CCN(S(=O)(=O)c2cnn3c2OCCC3)CC1` [Compound 421, 3-((4-fluoro-4-(7-methyl-[1,2,4]triazolo[1,5-a]pyridin-6-yl)piperidin-1-yl)sulfonyl)-6,7-dihydro-5H-pyrazolo[5,1-b][1,3]oxazine]: the half-inhibitory concentration (IC50) is 69 nM.
The value for `Cc1cc2ncnn2cc1C1(F)CCN(S(=O)(=O)c2cnn(C)c2C(F)F)CC1` [Compound 422, 6-(1-((5-(difluoromethyl)-1-methyl-1H-pyrazol-4-yl)sulfonyl)-4-fluoropiperidin-4-yl)-7-methyl-[1,2,4]triazolo[1,5-a]pyridine] was 86 nM; that for `Cc1cc2ncnn2cc1C1(F)CCN(S(=O)(=O)c2cnn(C)c2C(F)(F)F)CC1` [Compound 423, 6-(4-fluoro-1-((1-methyl-5-(trifluoromethyl)-1H-pyrazol-4-yl)sulfonyl)piperidin-4-yl)-7-methyl-[1,2,4]triazolo[1,5-a]pyridine] was 912 nM.
Consider `Cc1cc2nccnc2cc1C1CCN(S(=O)(=O)c2cnn(C)c2Cl)CC1` [Compound 424, 6-(1-((5-chloro-1-methyl-1H-pyrazol-4-yl)sulfonyl)piperidin-4-yl)-7-methylquinoxaline], for which the IC50 was 55 nM.
Consider `Cc1cc2nccnc2cc1C1CCN(S(=O)(=O)c2cnn(C)c2C)CC1` [Compound 425, 6-(1-((1,5-dimethyl-1H-pyrazol-4-yl)sulfonyl)piperidin-4-yl)-7-methylquinoxaline], for which the IC50 worked out at 72 nM.
Consider `Cc1cc2nccnc2cc1C1CCN(S(=O)(=O)c2cnn3c2OCCC3)CC1` [Compound 426, 3-((4-(7-methylquinoxalin-6-yl)piperidin-1-yl)sulfonyl)-6,7-dihydro-5H-pyrazolo[5,1-b][1,3]oxazine], for which the IC50 was determined as 26 nM.
For the compound `Cc1cnc2ccccc2c1C1=CCN(S(=O)(=O)c2cnn(C)c2Cl)CC1` [Compound 427, 4-(1-((5-chloro-1-methyl-1H-pyrazol-4-yl)sulfonyl)-1,2,3,6-tetrahydropyridin-4-yl)-3-methylquinoline], the 50% inhibitory concentration (IC50) was 32 nM.
As to `Cc1cnc2ccccc2c1C1=CCN(S(=O)(=O)c2cnn3c2OCCC3)CC1` [Compound 428, 3-((4-(3-methylquinolin-4-yl)-3,6-dihydropyridin-1(2H)-yl)sulfonyl)-6,7-dihydro-5H-pyrazolo[5,1-b][1,3]oxazine], the IC50 turned out to be 63 nM.
The value for `Cc1cnccc1C1CCN(S(=O)(=O)c2cnn(C)c2Cl)CC1` [Compound 429, 4-(1-((5-chloro-1-methyl-1H-pyrazol-4-yl)sulfonyl)piperidin-4-yl)-3-methylpyridine] was 398 nM.
Take `Cc1ncc(S(=O)(=O)N2CCC(c3ccncc3C)CC2)s1` [Compound 430, 2-methyl-5-((4-(3-methylpyridin-4-yl)piperidin-1-yl)sulfonyl)thiazole]: the 50% inhibitory concentration (IC50) was more than 10000 nM.
Turning to `Cc1cnccc1C1CCN(S(=O)(=O)c2cnn(C)c2C)CC1` [Compound 431, 4-(1-((1,5-dimethyl-1H-pyrazol-4-yl)sulfonyl)piperidin-4-yl)-3-methylpyridine], the IC50 is 812 nM.
Consider `Cn1ncc(S(=O)(=O)N2CCC(c3ccc4ncnn4c3)CC2)c1C#N` [Compound 432, 4-((4-([1,2,4]triazolo[1,5-a]pyridin-6-yl)piperidin-1-yl)sulfonyl)-1-methyl-1H-pyrazole-5-carbonitrile], for which the concentration for half-maximal inhibition (IC50) is 777 nM.
The figure for `Cn1ncc(S(=O)(=O)N2CCC(c3ccc4ncnn4c3)CC2)c1CC#N` [Compound 433, 2-(4-((4-([1,2,4]triazolo[1,5-a]pyridin-6-yl)piperidin-1-yl)sulfonyl)-1-methyl-1-pyrazol-5-yl)acetonitrile] is 3020 nM; for `Cc1cc2nccn2nc1N1CCN(S(=O)(=O)c2cnn(C)c2C)CC1` [Compound 434, 6-[4-(1,5-Dimethylpyrazol-4-yl)sulfonylpiperazin-1-yl]-7-methyl-imidazo[1,2-b]pyridazine] it is 43 nM.
The value for `Cc1cc2nccn2nc1N1CCN(S(=O)(=O)c2cnn3c2CCC3)CC1` [Compound 435, 6-(4-((5,6-dihydro-4H-pyrrolo[1,2-b]pyrazol-3-yl)sulfonyl)piperazin-1-yl)-7-methylimidazo[1,2-b]pyridazine] was 22 nM.
The figure for `Cc1cc2nccn2nc1N1CCN(S(=O)(=O)c2cnc(C)n2C)CC1` [Compound 436, 6-(4-((1,2-dimethyl-1H-imidazol-5-yl)sulfonyl)piperazin-1-yl)-7-methylimidazo[1,2-b]pyridazine] is 113 nM.
On to `Cc1cc2nccn2nc1N1CCN(S(=O)(=O)c2cnn3c2OCCC3)CC1` [Compound 437, 3-((4-(7-methylimidazo[1,2-b]pyridazin-6-yl)piperazin-1-yl)sulfonyl)-6,7-dihydro-5H-pyrazolo[5,1-b][1,3]oxazine], for which the IC50 is 59 nM.
With `Cc1c(C2CCN(S(=O)(=O)c3cnn(C)c3C#N)CC2)cn2ncnc2c1F` [Compound 438, 4-((4-(8-flooro-7-methyl-[1,2,4]triazolo[1,5-a]pyridin-6-yl)piperidin-1-yl)sulfonyl)-1-methyl-1H-pyrazole-5-carbonitrile], the IC50 was 26 nM.
The figure for `Cc1c(C2CCN(S(=O)(=O)c3cnn(C)c3CC#N)CC2)cn2ncnc2c1F` [Compound 439, 2-(4-((4-(8-fluoro-7-methyl-[1,2,4]triazolo[1,5-a]pyridin-6-yl)piperidin-1-yl)sulfonyl)-1-methyl-1H-pyrazol-5-yl)acetonitrile] is 162 nM.
